Assay results as given in patent US9795609B2, “Pharmaceutical composition of 1-adamantylethyloxy-3-morpholino-2-propanol or pharmaceutically acceptable salts thereof for the treatment of cardiovascular disease” (priority 2012, dated 2017).

What was measured:
Assay type in all cases: in vivo
cats = test: Coronary blood flow and haemodynamics in cats after intravenous administration; settings: 3, 5, and 10 mg/kg intravenously
Text: The ability of the pharmaceutical composition for parenteral use comprising the active substance 1-adamantylethyloxy-3-morpholino-2-propanol or pharmaceutically acceptable salts thereof to improve myocardial perfusion indicates to appropriateness of its use in acute coronary syndrome.

[1] = system: rats with small-focus myocardial infarction; test: Experimental therapy of rats with small-focus myocardial infarction
Text: The ability of the pharmaceutical composition for parenteral use comprising the active substance 1-adamantylethyloxy-3-morpholino-2-propanol or pharmaceutically acceptable salts thereof allows its use for treatment of cardiomyopathies of various geneses (alcoholic, infectious, toxic, and metabolic).
This allows to use it for treatment of various forms of coronary artery disease, including unstable angina pectoris, stable rest and exertional angina pectoris, angina pectoris of intact vessels, acute coronary syndrome (including early postinfarction angina pectoris), myocardial infarction (large-focus and small-focus, repeated and recurrent) post resuscitation disease (state after emergency procedures), treatment and prevention of ischemic myocardial postreperfusion injuries after thrombolysis, stenting, balloon angioplasty, coronary vessels atheroctomy, postinfarction myocardiosclerosis, cardiomyopathies of various genesis (alcoholic, infectious-toxic, and metabolic), heart rhythm disorders, diabetic angiopathies and complications thereof.

[2] = system: rats with acute adrenal cardiomyopathy; test: Acute adrenal cardiomyopathy simulation in rats, preventive single administration; settings: single doses of 15, 30, 50 and 100 mg/kg one hour before simulation
Text: This allows to use it for treatment of various forms of ischemic heart disease, including unstable angina pectoris, stable rest and exertional angina pectoris, angina pectoris of intact vessels, acute coronary syndrome (including early postinfarction angina pectoris), myocardial infarction (large-focus and small-focus, repeated and recurrent) post resuscitation disease (state after emergency procedures), and cardiomyopathies of various genesis (alcoholic, infectious-toxic, and metabolic).

[3] = 10 mg/kg once a day for 96 hours of ischemia

For OC(COCCC12CC3CC(CC(C3)C1)C2)CN1CCOCC1 (stereo not shown) [1-adamantylethyloxy-3-morpholino-2-propanol], the coronary blood flow (cats) was “stimulates coronary blood flow”, the hypotension (cats) was “not accompanied by hypotension” and the “peripheral vasodilatation, venous inflow and cardiac output” value (cats) was “not associated with peripheral vasodilatation, decreased of venous inflow and cardiac output”. The “bcl-2 antiapoptotic protein expression” value ([1]; 10 mg/kg once a day for 96 hours) was “promoted the increasing of bcl-2 antiapoptotic protein expression”, the “RNA content and transcriptional activity of cardiomyocytes” value [1, 3] was “increasing of RNA content and transcriptional activity” and the “c-fos protein content in cardiomyocytes” value [1, 3] was “promoted the increasing of c-fos protein content in cardiomyocytes”. The cardiomyocytes nuclei density [1, 3] was “retention of cardiomyocytes nuclei density”, the “percentage of necrotic cardiomyocytes” value [1, 3] was “the percentage of necrotic cardiomyocytes is reduced” and the “manifestations of endothelial dysfunction and nitrosating stress” value ([1]; 3, 10, 20, 50 and 100 mg/kg once a day for 96 hours of ischemia) was “promoted to reduce manifestations of endothelial dysfunction and nitrosating stress”. The mortality [2] was “promoted the reducing mortality in rats”.
